How the values were obtained:
[1] = system: Hedgehog pathway in C3H10T1/2 cells; test: C3H10T1/2 osteoblast differentiation assay (alkaline phosphatase readout, Shh-induced); assay type: cell-based; conditions: Mus musculus, C3H 10T1/2, Approximate EC50 for inhibition, sonic Hedgehog 250 ng/ml, AP activity normalized against total protein
From the text: Hedgehog pathway specific cancer cell killing effects may be ascertained using the following assay. C3H10T1/2 cells differentiate into osteoblasts when contacted with the sonic hedgehog peptide (Shh-N). Upon differentiation; these osteoblasts produce high levels of alkaline phosphatase (AP) which can be measured in an enzymatic assay (Nakamura, et al., BBRC (1997) 237:465). Compounds that block the differentiation of C3H10T1/2 into osteoblasts (a Shh dependent event) can therefore be identified by a reduction in AP production (van der Horst, et al., Bone (2003) 33:899). The assay details are described below. The results (EC50 for inhibition) of the differentiation assay are shown below in Table 1.
Mouse embryonic mesoderm fibroblasts C3H10T1/2 cells (obtained from ATCC) were cultured in Basal MEM Media (Gibco/Invitrogen) supplemented with 10% heat inactivated FBS (Hyclone), 50 units/ml penicillin and 50 ug/ml streptomycin (Gibco/Invitrogen) at 37° C. with 5% CO2 in air atmosphere.
C3H10T1/2 cells were plated in 96 wells with a density of 8×10^3 cells/well. Cells were grown to confluence (72 hrs). After sonic Hedgehog (250 ng/ml), and/or compound treatment, the cells were lysed in 110 μL, of lysis buffer (50 mM Tris pH 7.4, 0.1% Triton X 100), plates were sonicated and lysates spun through 0.2 μm PVDF plates (Corning). 40 μL of lysates was assayed for AP activity in alkaline buffer solution (Sigma) containing 1 mg/ml p-Nitrophenyl Phosphate. After incubating for 30 min at 37° C., the plates were read on an Envision plate reader at 405 nm. Total protein was quantified with a BCA protein assay kit from Pierce according to manufacturer's instructions. AP activity was normalized against total protein.

BXPC-3 cells = test: Pancreatic cancer model: subcutaneous BXPC-3 tumors in mice, tumor volume; assay type: in vivo, human; conditions: BXPC-3 subcutaneous in mice; orally 30 mg/kg/day, 25 daily doses
Method: (§1) The activity of Compound 12 was further tested in a human pancreatic model: BXPC-3 cells were implanted subcutaneously into the flanks of the right legs of mice. On day 42 post-tumor implant, the mice were randomized into two groups to receive either Vehicle (30% HPBCD) or Compound 12. Compound 12 was administered orally at 30 mg/kg/day. After receiving 25 daily doses, Compound 12 reduced tumor volume growth by 16% when compared to the vehicle control. At the end of the study, the tumors were harvested 4 hours post the last dose to evaluate an on target response by q-RT-PCR analysis of the HH pathway genes.

human Gli-1 = test: Pancreatic cancer model: q-RT-PCR of HH pathway genes in harvested tumors, human Gli-1; assay type: in vivo; conditions: BXPC-3 tumors harvested 4 hours post the last dose; 30 mg/kg/day orally
Method: as §1

murine Gli-1 mRNA = test: Pancreatic cancer model: q-RT-PCR of HH pathway genes in harvested tumors, murine Gli-1; assay type: in vivo; conditions: BXPC-3 tumors harvested 4 hours post the last dose; 30 mg/kg/day orally
Method: as §1

Gli-1 mRNA = test: Medulloblastoma model (Ptch1/Hic1 subcutaneous allografts): Gli-1 mRNA expression in tumors; assay type: in vivo, mouse; conditions: single oral dose, subcutaneously implanted medulloblastoma tumors, 8 hours post dose
Method: (§2) The activity of Compound 12 was also evaluated in a transgenic mouse model of medulloblastoma. Mice that are heterozygous for loss of function mutations in the tumor suppressors Patched1 (Ptch1) and Hypermethylated in Cancer (Hic1) develop spontaneous medulloblastoma. […] When passaged as subcutaneous allografts, these tumors grow aggressively and are Hedgehog pathway-dependent. This model was employed to evaluate the efficacy of orally administered Compound, and to correlate activity with drug exposure in plasma and tumors.

medulloblastoma = test: Medulloblastoma model (Ptch1/Hic1 subcutaneous allografts): tumor growth; assay type: in vivo, mouse
Method: as §2

NCI-H929 = test: Multiple myeloma colony growth in methylcellulose, NCI-H929; assay type: cell-based, human; conditions: treated 96 hours, plated in methylcellulose, colonies quantified 10-21 days later
Method: (§3) The ability of Compound 12 to inhibit the growth of multiple myeloma cells (MM) in vitro was tested, using human multiple myeloma cells lines (NCI-H929 and KMS12) and primary clinical bone marrow specimens derived from patients with MM. The cells were treated for 96 hours with Compound, washed, then plated in methylcellulose. Tumor colonies were quantified 10-21 days later as an indicator of cell growth potential following treatment.

KMS12 = test: Multiple myeloma colony growth in methylcellulose, KMS12; assay type: cell-based, human; conditions: treated 96 hours, plated in methylcellulose, colonies quantified 10-21 days later
Method: as §3

[2] = system: primary clinical bone marrow specimens derived from patients with MM; test: Multiple myeloma colony growth in methylcellulose, primary clinical bone marrow specimens; assay type: cell-based, human; conditions: clinical samples from MM patients; treated 96 hours, plated in methylcellulose
Method: as §3

U937 = test: AML colony formation in methylcellulose, U937; assay type: cell-based, human; conditions: 1.0 uM, 72 hours
Method: (§4) The ability of Compound 12 to inhibit the in vitro growth of human cell lines derived from patients with acute myeloid leukemia (AML, cell line U937) and myelodysplastic syndrome (MDS, cell line KG1 and KG1a) was studied. Each of the cell lines was treated for 72 hours with Compound 12 (1.0 uM) followed by plating in methylcellulose.

KG1 = test: MDS colony formation in methylcellulose, KG1; assay type: cell-based, human; conditions: 1.0 uM, 72 hours
Method: as §4

KG1a = test: MDS colony formation in methylcellulose, KG1a; assay type: cell-based, human; conditions: 1.0 uM, 72 hours
Method: as §4

L428 = test: Hodgkin's disease colony formation in methylcellulose, L428; assay type: cell-based, human; conditions: HD, 1.0 uM, 72 hours
Method: (§5) The ability of Compound 12 to inhibit the in vitro growth of human cell lines derived from patients with non-Hodgkin's lymphoma (cell lines RL and Jeko-1) and Hodgkin's disease (cell line L428) was studied. Each of the cell lines was treated for 72 hours with Compound 12 (1.0 uM) followed by plating in methylcellulose.

RL = test: Non-Hodgkin's lymphoma colony formation in methylcellulose, RL; assay type: cell-based, human; conditions: NHL, 1.0 uM, 72 hours
Method: as §5

Jeko-1 = test: Non-Hodgkin's lymphoma colony formation in methylcellulose, Jeko-1; assay type: cell-based, human; conditions: NHL, 1.0 uM, 72 hours
Method: as §5

[3] = system: Gli-reponsive luciferase reporter in REH; test: Gli-responsive luciferase reporter transient transfection assay, REH; assay type: cell-based; conditions: 1 uM, vehicle alone 6.73
Method: (§6) The activity of Compound 12 (1 uM) against three pre-B cell acute lymphocytic leukemia cell lines (REH, RS4-11, and Nalm-6) was studied, using a transient transfection assay in which a Gli-reponsive luciferase reporter was transiently transfected into cells. Treatment with Compound 12 repressed luciferase activity compared to a vehicle treated control (Table 4).

[4] = system: Gli-reponsive luciferase reporter in RS4-11; test: Gli-responsive luciferase reporter transient transfection assay, RS4-11; assay type: cell-based; conditions: 1 uM, vehicle alone 12.97
Method: as §6

[5] = system: Gli-reponsive luciferase reporter in Nalm-6; test: Gli-responsive luciferase reporter transient transfection assay, Nalm-6; assay type: cell-based; conditions: 1 uM, vehicle alone 8.42
Method: as §6

REH = test: Pre-B cell ALL colony formation in methylcellulose, REH; assay type: cell-based; conditions: treated 72 hours
Method: (§7) The effect of Compound 12 on the growth of two of these cell lines, treated in vitro for 72 hours, was also studied. Following treatment, cells were washed and plated in methylcellulose.

RS4-11 = test: Pre-B cell ALL colony formation in methylcellulose, RS4-11; assay type: cell-based; conditions: treated 72 hours
Method: as §7

[6] = 2° plating (replating of colonies)

Structure (SMILES): CC1=C2C[C@H]3[C@@H](CC[C@H]4NC(=O)CC[C@@]43C)C2CC[C@@]2(C1)O[C@@H]1C[C@H](C)CN[C@H]1[C@H]2C (some centres unmarked) [Compound 1]
- EC50 [1]: < 0.02 µM

Structure (SMILES): CC1=C2C[C@H]3[C@@H](CC[C@@H]4NC(=O)CC[C@@]43C)[C@@H]2CC[C@@]2(C1)O[C@@H]1C[C@H](C)CN[C@H]1[C@H]2C [Compound 11]
- EC50 [1]: > 0.1 µM

Structure (SMILES): CC1=C2C[C@H]3[C@@H](CC[C@@H]4CNC(=O)CC[C@@]43C)[C@@H]2CC[C@@]2(C1)O[C@@H]1C[C@H](C)CN[C@H]1[C@H]2C [Compound 12]
- EC50 [1]: 0.02 to 0.1 µM
- reduced tumor volume growth compared to the vehicle control (BXPC-3 cells): 16%
- human Gli-1 modulation (q-RT-PCR) (human Gli-1): no modulation
- murine Gli-1 mRNA levels (q-RT-PCR) compared to Vehicle treated group (murine Gli-1 mRNA): robust down-regulation
- HH pathway regulation measured by Gli-1 mRNA expression (Gli-1 mRNA): dose-dependent down-regulation
- ED50 (medulloblastoma; Mus musculus, daily oral dosing, medulloblastoma allografts, read-out: approximate effective daily oral dose for 50% inhibition of tumor growth (ED50)): 3 to 7.5 mg/kg
- tumor regression (medulloblastoma; daily (QD) PO administration, at higher doses): frank tumor regression seen at higher doses
- inhibition of tumor growth (medulloblastoma; daily (QD) PO administration, medulloblastoma allografts): dose dependent inhibition of tumor growth
- % growth of cells (untreated control 100%) (NCI-H929): less than 25%
- % growth of cells (untreated control 100%) (KMS12): less than 25%
- % growth of cells (untreated control 100%) [2]: less than 25%
- % colony formation with Compound 12 (relative to vehicle control) (U937): 43.4%
- % colony formation with Compound 12 (relative to vehicle control) (KG1): 25.1%
- % colony formation with Compound 12 (relative to vehicle control) (KG1a): 34.6%
- % colony formation with Compound 12 (relative to vehicle control) (L428): 21.4%
- % colony formation with Compound 12 (relative to vehicle control) (RL): 14.3%
- % colony formation with Compound 12 (relative to vehicle control) (Jeko-1): 27.4%
- Relative luc activity (+ Compound) [3]: 1.12
- Relative luc activity (+ Compound) [4]: 1.31
- Relative luc activity (+ Compound) [5]: 1.44
- % colony formation with Compound (relative to vehicle control) - 1° plating (REH; 1° plating): 63%
- % colony formation with Compound (relative to vehicle control) - 2° plating (REH; [6]): 9%
- % colony formation with Compound (relative to vehicle control) - 1° plating (RS4-11; 1° plating): 71%
- % colony formation with Compound (relative to vehicle control) - 2° plating (RS4-11; [6]): 11%

Structure (SMILES): CC1=C2C[C@H]3[C@@H](CC[C@@H]4CC(=O)NCC[C@@]43C)[C@@H]2CC[C@@]2(C1)O[C@@H]1C[C@H](C)CN[C@H]1[C@H]2C [Compound 19]
- EC50 [1]: > 0.1 µM

Structure (SMILES): CC1=C2C[C@H]3[C@@H](CC[C@@H]4CN(C)C(=O)CC[C@@]43C)[C@@H]2CC[C@@]2(C1)O[C@@H]1C[C@H](C)CN[C@H]1[C@H]2C [Compound 31]
- EC50 [1]: 0.02 to 0.1 µM

Structure (SMILES): CC1=C2C[C@H]3[C@@H](CC[C@@H]4CN(C)C(=O)CC[C@@]43C)[C@@H]2CC[C@@]2(C1)O[C@@H]1C[C@H](C)CN(S(C)(=O)=O)[C@H]1[C@H]2C [Compound 35]
- EC50 [1]: > 0.1 µM

Structure (SMILES): CC1=C2C[C@H]3[C@@H](CC[C@@H]4CNC(=O)CC[C@@]43C)[C@@H]2CC[C@@]2(C1)O[C@@H]1C[C@H](C)CN(S(C)(=O)=O)[C@H]1[C@H]2C [Compound 40]
- EC50 [1]: < 0.02 µM

Structure (SMILES): CC1=C2C[C@H]3[C@@H](CCC4=CN(C)C(=O)CC[C@@]43C)[C@@H]2CC[C@@]2(C1)O[C@@H]1C[C@H](C)CN[C@H]1[C@H]2C [Compound 41]
- EC50 [1]: > 0.1 µM

Structure (SMILES): CC1=C2C[C@H]3[C@@H](CC[C@@H]4CCN(S(C)(=O)=O)CC[C@@]43C)[C@@H]2CC[C@@]2(C1)O[C@@H]1C[C@H](C)CN(S(C)(=O)=O)[C@H]1[C@H]2C [Compound 50]
- EC50 [1]: > 0.1 µM

From US8431566B2, “Cyclopamine lactam analogs and methods of use thereof” (Infinity Discovery, Inc., priority 2007, dated 2013)
